Source: patent US20260374739A1, “SMALL MOLECULAR WEIGHT CHEMICAL COMPOUND TO ANTAGONIZE EPH-EPHRIN TETRAMERIZATION AND INHIBIT BIDIRECTIONAL SIGNALING” (THE BOARD OF REGENTS OF THE UNIVERSITY OF TEXAS SYSTEM, priority 2022, published 2026)
pIC50: −log10 of the molar value. Where “and” joins values, the source holds several entries; their conditions need not be identical. Equal entries are not always repeated. Entries after “also recorded” stand apart in the source; their conditions may differ. Where two headings read alike, the source gives them in different places. Marks after values point to notes of the source that are not given here.

Experiments:
EphrinB2-EphB4 = target: T1, EphrinB2-EphB4 (Homo sapiens, UniProt P54760); experiment: Octet 80 sec association/500 sec dissociation, immobilized human EphrinB2-Fc binding to soluble human EphB4-His; conditions: for selectivity among EphrinB2-EphB1/B2/B4: 3.2 μM; for inhibition at 3.2 µM: 25 nM EphB4, 3.2 μM compound, A20-I as max control, 0* = less than 0, no inhibition; for EphB4 Inhibition Percent, Inhibition of Association ONLY: at 3.2 μM and 80 seconds; for EphB4 Inhibition Percent, Inhibition of Association ONLY / EphB4 Inhibition Percent, Inhibition of Association-Dissociation: immobilized human EphrinB2, 25 nM soluble human EphB4; for EphB4 Inhibition Percent, Inhibition of Association-Dissociation: at 3.2 μM and 580 seconds; for inhibition: highest dose, typically 3.2 μM
T1 construct: soluble human EphB1-His, EphB2-His, and EphB4-His ectodomains; commercially available human EphrinB1-Fc (EB1), EphrinB2-Fc (EB2), and EphrinB3-Fc (EB3) ectodomain proteins; purchased
T1 sequence (P54760 16-539 limits assumed): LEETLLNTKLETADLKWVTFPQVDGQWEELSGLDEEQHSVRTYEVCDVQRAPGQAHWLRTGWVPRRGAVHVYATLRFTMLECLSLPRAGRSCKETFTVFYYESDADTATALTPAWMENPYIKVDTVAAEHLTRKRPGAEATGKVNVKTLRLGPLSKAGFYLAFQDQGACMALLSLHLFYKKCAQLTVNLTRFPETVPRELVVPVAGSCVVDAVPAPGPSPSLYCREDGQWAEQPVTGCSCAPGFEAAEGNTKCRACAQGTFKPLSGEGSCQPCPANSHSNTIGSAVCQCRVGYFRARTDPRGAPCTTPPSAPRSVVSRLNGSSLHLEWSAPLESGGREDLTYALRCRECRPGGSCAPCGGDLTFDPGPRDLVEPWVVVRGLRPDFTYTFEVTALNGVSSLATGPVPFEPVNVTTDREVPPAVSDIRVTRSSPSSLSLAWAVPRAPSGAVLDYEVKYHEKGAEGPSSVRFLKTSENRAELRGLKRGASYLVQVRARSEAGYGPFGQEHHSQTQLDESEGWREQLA
Method in brief: (§1)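 EphrinB2-Fc captured on AHC biosensors, then soluble His-tagged EphB ectodomain (25 nM for % inhibition runs) associated 80 s and dissociated 500 s in PBS, 0.05% Tween-20, 1% DMSO ± compound. Compounds tested at 0.1–3.2 μM with a 10 μM max standard; IC50 from AUC of full traces or at 75 s and 135 s.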

EphrinB2-EphB1 = target: T2, EphrinB2-EphB1 (Homo sapiens, UniProt P54762); experiment: Octet 80 sec association/500 sec dissociation, immobilized human EphrinB2-Fc binding to soluble human EphB1-His; conditions: for EphB1 Inhibition Percent, Inhibition of Association ONLY: at 3.2 μM and 80 seconds; for EphB1 Inhibition Percent, Inhibition of Association ONLY / EphB1 Inhibition Percent, Inhibition of Association-Dissociation: immobilized human EphrinB2, 25 nM soluble human EphB1; for EphB1 Inhibition Percent, Inhibition of Association-Dissociation: at 3.2 μM and 580 seconds; for inhibition: highest dose, typically 3.2 μM
T2 construct: soluble human EphB1-His, EphB2-His, and EphB4-His ectodomains; commercially available human EphrinB1-Fc (EB1), EphrinB2-Fc (EB2), and EphrinB3-Fc (EB3) ectodomain proteins; purchased
T2 sequence (P54762 18-540 limits assumed): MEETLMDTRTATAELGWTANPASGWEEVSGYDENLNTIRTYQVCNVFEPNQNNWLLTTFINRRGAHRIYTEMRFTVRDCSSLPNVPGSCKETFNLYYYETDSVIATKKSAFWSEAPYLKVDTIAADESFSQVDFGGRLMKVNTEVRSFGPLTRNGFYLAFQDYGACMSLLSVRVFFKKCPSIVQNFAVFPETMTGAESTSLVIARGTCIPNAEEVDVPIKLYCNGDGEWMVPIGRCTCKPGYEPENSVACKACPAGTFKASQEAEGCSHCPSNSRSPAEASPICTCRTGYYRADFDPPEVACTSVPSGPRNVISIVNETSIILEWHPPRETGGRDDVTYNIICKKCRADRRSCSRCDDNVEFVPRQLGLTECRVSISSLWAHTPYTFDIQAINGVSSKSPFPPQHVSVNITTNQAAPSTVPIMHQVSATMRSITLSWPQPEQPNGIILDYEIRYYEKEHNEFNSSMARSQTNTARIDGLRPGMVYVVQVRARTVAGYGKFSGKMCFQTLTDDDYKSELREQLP
Method in brief: as §1

[1] = EphB4, read-out: % Inhibition: Association + Dissociation (160 sec)
[2] = EphB4, read-out: % Inhibition: Association ONLY (80 sec)
[3] = EphB1, 25 nM EphB1, 3.2 μM compound, A20-I as max control, 0* = less than 0, no inhibition, read-out: % Inhibition: Association + Dissociation (160 sec)
[4] = EphB1, 25 nM EphB1, 3.2 μM compound, A20-I as max control, 0* = less than 0, no inhibition, read-out: % Inhibition: Association ONLY (80 sec)

## O=[N+]([O-])c1cc(CN2CCS(=O)(=O)CC2)c2cccnc2c1O [Compound 20, 4-((8-hydroxy-7-nitroquinolin-5-yl)methyl)thiomorpholine 1,1-dioxide]
EphrinB2-EphB4; listed as QTM-NO2
  selectivity among EphrinB2-EphB1/B2/B4: ability to selectively inhibit EphrinB2-EphB2 and EphrinB2-EphB1 interactions, while sparing the EphrinB2-EphB4 interaction; also recorded: less action towards EphB4 but high specificity for EphB1 and EphB2
EphrinB2-EphB4; [1]
  inhibition at 3.2 µM: 0%
EphrinB2-EphB4; [2]
  inhibition at 3.2 µM: 0%
EphrinB2-EphB1; [3]
  inhibition at 3.2 µM: 36%
EphrinB2-EphB1; [4]
  inhibition at 3.2 µM: 24%
EphrinB2-EphB1; association step, general
  inhibition of EphB1-EphrinB2 binding: 25%

## Oc1ccc(CN2CCN(c3ccc(Br)cc3)CC2)c2cccnc12 [Compound 26, 5-((4-(4-bromophenyl)piperazin-1-yl)methyl)quinolin-8-ol]
EphrinB2-EphB4; listed as QPB4
  selectivity among EphrinB2-EphB1/B2/B4: ability to selectively inhibit EphrinB2-EphB2 and EphrinB2-EphB1 interactions, while sparing the EphrinB2-EphB4 interaction; also recorded: less action towards EphB4 but high specificity for EphB1 and EphB2
EphrinB2-EphB4
  EphB4 Inhibition Percent, Inhibition of Association ONLY: 0*%
  EphB4 Inhibition Percent, Inhibition of Association-Dissociation: 0*%
EphrinB2-EphB1; EphB1, 25 nM EphB1, 3.2 μM compound, A20-I as max control, 0* = less than 0, no inhibition, listed as QPB4
  % Inhibition: Association + Dissociation (160 sec): 35.0%
EphrinB2-EphB1; [3]
  inhibition at 3.2 µM: 30.6%
EphrinB2-EphB1
  EphB1 Inhibition Percent, Inhibition of Association ONLY: 11.2%
  EphB1 Inhibition Percent, Inhibition of Association-Dissociation: 36.6%

## Oc1c(Br)cc(CN2CCN(c3ccc(Br)cc3)CC2)c2cccnc12 [Compound 28, 7-bromo-5-((4-(4-bromophenyl)piperazin-1-yl)methyl)quinolin-8-ol]
EphrinB2-EphB4; EphB4, 0-160 sec, 50 nM, 10 μM compound, Table 4
  % Inhibited (AUC), Association + Dissociation: 29.3%
EphrinB2-EphB4; EphB4, 50 nM, 10 μM compound, Table 4
  % Inhibited (AUC), Association: 16.6%
EphrinB2-EphB4; EphB4, Association (75″), read-out: Absolute IC50
  pIC50: < 5.49
EphrinB2-EphB4; EphB4, Association (75″), read-out: Relative IC50
  pIC50: 7.10
EphrinB2-EphB4; EphB4, Association (AUC), read-out: Absolute IC50
  pIC50: < 5.49
EphrinB2-EphB4; EphB4, Association (AUC), read-out: Relative IC50
  pIC50: 6.92
EphrinB2-EphB4; EphB4, Dissociation (135″), read-out: Absolute IC50
  pIC50: 6.11
EphrinB2-EphB4; EphB4, Dissociation (135″), read-out: Relative IC50
  pIC50: 6.70
EphrinB2-EphB4; EphB4, Full AUC, read-out: Absolute IC50
  pIC50: 6.49
EphrinB2-EphB4; EphB4, Full AUC, read-out: Relative IC50
  pIC50: 6.59
EphrinB2-EphB4; EphB4, read-out: Association (% Inhibited (AUC))
  inhibition: 12.5%
EphrinB2-EphB4; EphB4, read-out: Association + Dissociation (% Inhibited (AUC))
  inhibition: 36.4%
EphrinB2-EphB1; EphB1, 0-160 sec, 50 nM, 10 μM compound, Table 4
  % Inhibited (AUC), Association + Dissociation: 38.6%
EphrinB2-EphB1; EphB1, 50 nM, 10 μM compound, Table 4
  % Inhibited (AUC), Association: 24.7%
EphrinB2-EphB1; EphB1, Association (75″), read-out: Absolute IC50
  pIC50: < 5.49
EphrinB2-EphB1; EphB1, Association (75″), read-out: Relative IC50
  pIC50: 7.00
EphrinB2-EphB1; EphB1, Association (AUC), read-out: Absolute IC50
  pIC50: < 5.49
EphrinB2-EphB1; EphB1, Association (AUC), read-out: Relative IC50
  pIC50: 7.00
EphrinB2-EphB1; EphB1, Dissociation (135″), read-out: Absolute IC50
  pIC50: 6.44
EphrinB2-EphB1; EphB1, Dissociation (135″), read-out: Relative IC50
  pIC50: 7.10
EphrinB2-EphB1; EphB1, Full AUC, read-out: Absolute IC50
  pIC50: 6.30
EphrinB2-EphB1; EphB1, Full AUC, read-out: Relative IC50
  pIC50: 6.77
EphrinB2-EphB1; EphB1, read-out: Association (% Inhibited (AUC))
  inhibition: 39.1%
EphrinB2-EphB1; EphB1, read-out: Association + Dissociation (% Inhibited (AUC))
  inhibition: 53.1%

## Oc1c(Br)cc(CN2CCN(c3ccc(Br)cc3)CC2)c2cccnc12 [Compound 30, 7-bromo-5-((4-(4-bromophenyl)piperazin-1-ium-1-yl)methyl)-8-hydroxyquinolin-1-ium chloride]
EphrinB2-EphB4
  EphB4 Inhibition Percent, Inhibition of Association ONLY: 16.6% and 12.5%
  EphB4 Inhibition Percent, Inhibition of Association-Dissociation: 29.3% and 36.4%
EphrinB2-EphB1
  EphB1 Inhibition Percent, Inhibition of Association ONLY: 24.7% and 39.1%
  EphB1 Inhibition Percent, Inhibition of Association-Dissociation: 38.6% and 53.1%

## Oc1ccc(CN2CCN(c3ccc(Br)cn3)CC2)c2cccnc12 [Compound 33, 5-((4-(5-bromopyridin-2-yl)piperazin-1-yl)methyl)quinolin-8-ol]
EphrinB2-EphB4; [1]
  inhibition at 3.2 µM: 36.9%
EphrinB2-EphB4; [2]
  inhibition at 3.2 µM: 20.9%
EphrinB2-EphB1; [3]
  inhibition at 3.2 µM: 58.6%
EphrinB2-EphB1; [4]
  inhibition at 3.2 µM: 46.4%

## Oc1ccc(CN2CCN(Cc3ccccc3)CC2)c2cccnc12 [Compound 41, 5-((4-benzylpiperazin-1-yl)methyl)quinolin-8-ol]
EphrinB2-EphB4; listed as QPBN
  selectivity among EphrinB2-EphB1/B2/B4: more selective for EphB1
EphrinB2-EphB4; [1]
  inhibition at 3.2 µM: 2.6%
EphrinB2-EphB4; [2]
  inhibition at 3.2 µM: 0%
EphrinB2-EphB1; [3]
  inhibition at 3.2 µM: 27.7%
EphrinB2-EphB1; [4]
  inhibition at 3.2 µM: 18.7%

## Oc1ccc(CN2CCN(Cc3ccc(Br)cc3)CC2)c2cccnc12 [Compound 42, 5-((4-(4-bromobenzyl)piperazin-1-yl)methyl)quinolin-8-ol]
EphrinB2-EphB4
  selectivity among EphrinB2-EphB1/B2/B4: ability to selectively inhibit EphrinB2-EphB2 and EphrinB2-EphB1 interactions, while sparing the EphrinB2-EphB4 interaction
EphrinB2-EphB4; [1]
  inhibition at 3.2 µM: 0%
EphrinB2-EphB4; [2]
  inhibition at 3.2 µM: 0%
EphrinB2-EphB1; [3]
  inhibition at 3.2 µM: 36.5%
EphrinB2-EphB1; [4]
  inhibition at 3.2 µM: 19.9%

## Oc1c(Br)cc(CN2CCN(Cc3ccc(Br)cc3)CC2)c2cccnc12 [Compound 44, 7-bromo-5-((4-(4-bromobenzyl)piperazin-1-yl)methyl)quinolin-8-ol]
EphrinB2-EphB4; [1]
  inhibition at 3.2 µM: 28.3%
EphrinB2-EphB4; [2]
  inhibition at 3.2 µM: 4.9%
EphrinB2-EphB1; [3]
  inhibition at 3.2 µM: 49.9%
EphrinB2-EphB1; [4]
  inhibition at 3.2 µM: 37.3%

## Oc1ccc(CN2CCN(Cc3ccc(C(F)(F)F)cc3)CC2)c2cccnc12 [Compound 48, 5-((4-(4-(trifluoromethyl)benzyl)piperazin-1-yl)methyl)quinolin-8-ol]
EphrinB2-EphB4; [1]
  inhibition at 3.2 µM: 0%
EphrinB2-EphB4; [2]
  inhibition at 3.2 µM: 0%
EphrinB2-EphB1; [3]
  inhibition at 3.2 µM: 19.8%
EphrinB2-EphB1; [4]
  inhibition at 3.2 µM: 2.6%

## O=C(Cc1ccccc1)Nc1ccc(N2CCN(Cc3ccc(O)c4ncccc34)CC2)cc1 [Compound 51, N-(4-(4-((8-hydroxyquinolin-5-yl)methyl)piperazin-1-yl)phenyl)-2-phenylacetamide]
EphrinB2-EphB4; [1]
  inhibition at 3.2 µM: 37.2%
EphrinB2-EphB4; [2]
  inhibition at 3.2 µM: 18.1%
EphrinB2-EphB1; [3]
  inhibition at 3.2 µM: 61.2%
EphrinB2-EphB1; [4]
  inhibition at 3.2 µM: 52.7%

## Oc1ccc(CN2CCN(c3ccc(F)cc3F)CC2)c2cccnc12 [Compound 62, 5-((4-(2,4-difluorophenyl)piperazin-1-yl)methyl)quinolin-8-ol]
EphrinB2-EphB4
  EphB4 Inhibition Percent, Inhibition of Association ONLY: 5.0%
  EphB4 Inhibition Percent, Inhibition of Association-Dissociation: 0*%
EphrinB2-EphB1
  EphB1 Inhibition Percent, Inhibition of Association ONLY: 17.9%
  EphB1 Inhibition Percent, Inhibition of Association-Dissociation: 14.7%
